*1 amine or outer side, *2 acyl side, *3 side chain or, on linkers, in order; H or OH if unused. Where a SMILES comes first, the peptide text is derived from it. Bridges are numbered along the chain shown (N, C = ends). [ ]: non-standard residue; d: D form. The star is where a group is joined. ξ: configuration not given here. Phe(3-CONHMe,4-OMe) = CNC(=O)c1cc(C[C@H](N)C(=O)O)ccc1OC; Phe(3-OMe,4-CONHMe) = CNC(=O)c1ccc(C[C@H](N)C(=O)O)cc1OC; NMePhe(3-Cl) = CN[C@@H](Cc1cccc(Cl)c1)C(=O)O; X7 = O=C(C[C@H](COCCO)N[*:1])[*:2]; NMeF = CN[C@@H](Cc1ccccc1)C(=O)O; NMeGABA = CN(CCCC(=O)[*:2])[*:1]; NMeI = CC[C@H](C)[C@H](NC)C(=O)O; NMeL = CN[C@@H](CC(C)C)C(=O)O; Thr(3ξ) = CC(O)[C@H](N)C(=O)O; NMeV = CN[C@H](C(=O)O)C(C)C; Piperidide = C1CCN(*)CC1; NBuGly = CCCCNCC(=O)O; NPrGly = CCCNCC(=O)O; Sar = CNCC(=O)O; tBu = CC(C)(C)*
assay: in vitro; settings: human, Caco-2, Caco-2 (cm/sec)

Row | Compound | Papp [nm/s]
1 | CC[C@H](C)[C@@H]1NC(=O)[C@H](CC(C)C)N(C)C(=O)CCCN(C)C(=O)C[C@@H](C(=O)N2CCCCC2)NC(=O)[C@H](CC(C)C)N(C)C(=O)[C@H](CC(C)C)N(C)C(=O)[C@H]([C@@H](C)O)NC(=O)[C@H](CC(C)C)N(C)C(=O)C[C@H](COCCO)NC(=O)[C@H](CC(C)C)N(C)C(=O)[C@H](Cc2cccc(Cl)c2)N(C)C1=O [AP22] ([NMeGABA][NMeL]I[NMePhe(3-Cl)][NMeL][X7][NMeL]T[NMeL][NMeL]D-Piperidide; lactam N-11) | 2.3
2 | CCCCN1CC(=O)N(C)[C@@H](CC(C)C)C(=O)N[C@H](C(=O)N2CCCCC2)CC(=O)N(C)[C@@H](CC(C)C)C(=O)N[C@@H](COCCO)CC(=O)N(C)[C@@H](CC(C)C)C(=O)N(C)[C@@H](Cc2ccccc2)C(=O)N[C@@H](CC(C)C)C(=O)N(C)[C@@H](Cc2ccccc2)C(=O)N(C)[C@@H](CC(C)C)C(=O)N[C@@H]([C@@H](C)O)C1=O [AP23] ([NMeL][X7][NMeL][NMeF]L[NMeF][NMeL]T[NBuGly][NMeL]D-Piperidide; lactam N-11) | 4.3
3 | CCCN1CC(=O)N(C)[C@@H](CC(C)C)C(=O)N[C@H](C(=O)N2CCCCC2)CC(=O)N(C)[C@@H](CC(C)C)C(=O)N[C@@H](Cc2ccccc2)C(=O)N(C)[C@@H](CC(C)C)C(=O)N(C)[C@@H](CC(C)C)C(=O)N[C@@H](COCCO)CC(=O)N(C)[C@@H](Cc2ccccc2)C(=O)N(C)[C@@H](CC(C)C)C(=O)N[C@@H]([C@@H](C)O)C1=O [AP24] ([NMeL]F[NMeL][NMeL][X7][NMeF][NMeL]T[NPrGly][NMeL]D-Piperidide; lactam N-11) | 4.2
4 | CCCCN1CC(=O)N(C)[C@@H](Cc2ccccc2)C(=O)N[C@@H](COCCO)CC(=O)N(C)[C@@H](CC(C)C)C(=O)N[C@@H]([C@@H](C)O)C(=O)N(CCC)CC(=O)N(C)[C@@H](Cc2ccccc2)C(=O)N(C)[C@@H](CC(C)C)C(=O)N[C@@H](CC(C)C)C(=O)N(C)[C@@H](CC(C)C)C(=O)N[C@H](C(=O)N2CCCCC2)CC1=O [AP25] ([NBuGly][NMeF][X7][NMeL]T[NPrGly][NMeF][NMeL]L[NMeL]D-Piperidide; lactam N-11) | 6.2
5 | CCCCN1CC(=O)N(C)[C@@H](Cc2ccccc2)C(=O)N[C@@H]([C@@H](C)CC)C(=O)N(C)[C@@H](CC(C)C)C(=O)N[C@@H](C(C)O)C(=O)N(CCC)CC(=O)N(C)[C@@H](Cc2ccccc2)C(=O)N(C)[C@@H](CC(C)C)C(=O)N[C@@H](COCCO)CC(=O)N(C)[C@@H](CC(C)C)C(=O)N[C@H](C(=O)N2CCCCC2)CC1=O (stereo partly drawn) [AP26] ([NBuGly][NMeF]I[NMeL][Thr(3ξ)][NPrGly][NMeF][NMeL][X7][NMeL]D-Piperidide; lactam N-11) | 3.7
6 | CCCCN1CC(=O)N(C)[C@@H](CC(C)C)C(=O)N[C@@H](COC(C)(C)C)C(=O)N(C)[C@@H](Cc2ccccc2)C(=O)N(C)[C@@H](CC(C)C)C(=O)N[C@H](C(=O)N2CCCCC2)CC(=O)N[C@H](C(C)C)C(=O)N(C)[C@@H](C(C)C)C(=O)N[C@@H](Cc2ccc(C(=O)NC)c(OC)c2)C(=O)N(C)[C@@H](CC(C)C)C(=O)N[C@@H]([C@@H](C)O)C1=O [AP27] ([dV][NMeV][Phe(3-OMe,4-CONHMe)][NMeL]T[NBuGly][NMeL]S(tBu)[NMeF][NMeL]D-Piperidide; lactam N-11) | 9.1
7 | CCCCN1CC(=O)N(C)[C@@H](CC(C)C)C(=O)N[C@@H](Cc2ccc(C(=O)NC)c(OC)c2)C(=O)N(C)[C@@H](CC(C)C)C(=O)N(C)[C@@H](CC(C)C)C(=O)N[C@H](C(=O)N2CCCCC2)CC(=O)N[C@H](CC(C)C)C(=O)N(C)[C@@H](Cc2ccccc2)C(=O)N[C@@H](C(C)C)C(=O)N(C)[C@@H](CC(C)C)C(=O)N[C@@H]([C@@H](C)O)C1=O [AP28] ([dL][NMeF]V[NMeL]T[NBuGly][NMeL][Phe(3-OMe,4-CONHMe)][NMeL][NMeL]D-Piperidide; lactam N-11) | 3.8
8 | CCCCN1CC(=O)N(C)[C@@H](CC(C)C)C(=O)N[C@@H](COC(C)(C)C)C(=O)N(C)[C@@H]([C@@H](C)CC)C(=O)N(C)[C@@H](CC(C)C)C(=O)N[C@H](C(=O)N2CCCCC2)CC(=O)N[C@H](C)C(=O)N(C)[C@@H](Cc2ccccc2)C(=O)N[C@@H](Cc2ccc(C(=O)NC)c(OC)c2)C(=O)N(C)[C@@H](CC(C)C)C(=O)N[C@@H]([C@@H](C)O)C1=O [AP29] ([dA][NMeF][Phe(3-OMe,4-CONHMe)][NMeL]T[NBuGly][NMeL]S(tBu)[NMeI][NMeL]D-Piperidide; lactam N-11) | 3.6
9 | CC[C@H](C)[C@@H]1NC(=O)[C@H](CC(C)C)N(C)C(=O)CCCN(C)C(=O)C[C@@H](C(=O)N2CCCCC2)NC(=O)[C@H](CC(C)C)N(C)C(=O)[C@H](CC(C)C)N(C)C(=O)[C@H]([C@@H](C)O)NC(=O)[C@H](CC(C)C)N(C)C(=O)[C@H](Cc2ccc(C(=O)NC)c(OC)c2)NC(=O)[C@H](CC(C)C)N(C)C(=O)[C@H](Cc2ccccc2)N(C)C1=O [AP30] ([NMeGABA][NMeL]I[NMeF][NMeL][Phe(3-OMe,4-CONHMe)][NMeL]T[NMeL][NMeL]D-Piperidide; lactam N-11) | 1.9
10 | CNC(=O)c1ccc(C[C@@H]2NC(=O)[C@H](CC(C)C)N(C)C(=O)[C@H](CC(C)C)N(C)C(=O)[C@H](CC(C)C)NC(=O)[C@H](CC(C)C)N(C)C(=O)C[C@@H](C(=O)N3CCCCC3)NC(=O)[C@H](CC(C)C)N(C)C(=O)CN(C)C(=O)[C@H](C(C)O)NC(=O)[C@H](C(C)C)N(C)C(=O)[C@H](CC(C)C)N(C)C2=O)cc1OC (stereo partly drawn) [AP32] ([NMeL]L[NMeL][NMeL][Phe(3-OMe,4-CONHMe)][NMeL][NMeV][Thr(3ξ)][Sar][NMeL]D-Piperidide; lactam N-11) | 13
11 | CCCCN1CC(=O)N(C)[C@@H](CC(C)C)C(=O)N(C)[C@@H](CC(C)C)C(=O)N[C@@H](COC(C)(C)C)C(=O)N(C)[C@@H](CC(C)C)C(=O)N[C@H](C(=O)N2CCCCC2)CC(=O)N(C)CC(=O)N(C)[C@@H](Cc2cccc(Cl)c2)C(=O)N[C@@H](Cc2ccc(C(=O)NC)c(OC)c2)C(=O)N(C)[C@@H](CC(C)C)C(=O)N[C@@H]([C@@H](C)O)C1=O [AP33] ([Sar][NMePhe(3-Cl)][Phe(3-OMe,4-CONHMe)][NMeL]T[NBuGly][NMeL][NMeL]S(tBu)[NMeL]D-Piperidide; lactam N-11) | 6.1
12 | CC[C@H](C)[C@@H]1NC(=O)[C@H](CC(C)C)N(C)C(=O)CN(C)C(=O)C[C@@H](C(=O)N2CCCCC2)NC(=O)[C@H](CC(C)C)N(C)C(=O)[C@H](Cc2ccc(C(=O)NC)c(OC)c2)NC(=O)[C@H](CC(C)C)N(C)C(=O)[C@H](Cc2cccc(Cl)c2)N(C)C(=O)CN(C)C(=O)[C@H]([C@@H](C)O)NC(=O)[C@H](CC(C)C)N(C)C1=O [AP34] ([Sar][NMeL]I[NMeL]T[Sar][NMePhe(3-Cl)][NMeL][Phe(3-OMe,4-CONHMe)][NMeL]D-Piperidide; lactam N-11) | 2
13 | CCCCN1CC(=O)N(C)[C@@H](CC(C)C)C(=O)N[C@@H](COC(C)(C)C)C(=O)N(C)[C@@H](Cc2ccccc2)C(=O)N(C)[C@@H](CC(C)C)C(=O)N[C@H](C(=O)N2CCCCC2)CC(=O)N[C@H](C(C)C)C(=O)N(C)[C@@H](C(C)C)C(=O)N[C@@H](Cc2ccc(OC)c(C(=O)NC)c2)C(=O)N(C)[C@@H](CC(C)C)C(=O)N[C@@H]([C@@H](C)O)C1=O [AP35] ([dV][NMeV][Phe(3-CONHMe,4-OMe)][NMeL]T[NBuGly][NMeL]S(tBu)[NMeF][NMeL]D-Piperidide; lactam N-11) | 20

Reference: patent publication US20230096766A1, “AMINO ACID HAVING FUNCTIONAL GROUP CAPABLE OF INTERMOLECULAR HYDROGEN BONDING, PEPTIDE COMPOUND CONTAINING SAME AND METHOD FOR PRODUCTION THEREOF” (Chugai Seiyaku Kabushiki Kaisha, priority 2018, published 2023)
